Assays:
spleen = experiment: In vivo Fluc activity of FlucmRNA-loaded LNP by in vivo imaging, spleen; conditions: Balb/c mice, 6 hours; for Fluc Activity in spleen: FlucmRNA-loaded LNP i.v. 0.1 mg mRNA/kg; for Fluc activity in the spleen, compared with CL4F6 / Fluc activity in the spleen, compared with CL15F6: 0.1 mg mRNA/kg; for Fluc activity in the spleen, compared with CL4F6: versus LNP comprising CL4F6 (Tables 5 and 6); for Fluc activity in the spleen, compared with CL15F6: versus LNP comprising CL15F6 (Table 7)
Method in brief: (§1)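 Read-out is average radiance (p/s/cm2/sr, about 560 nm) from whole-animal imaging of liver and spleen 6 h post-dose, after tail-vein luciferin at 1.5 mg/mouse. Dosing was intravenous, 0.1 mg mRNA/kg, in 7-week-old female Balb/c mice.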

[1] = Average particle size (ζ-Average) and PDI by dynamic light scattering (Zetasizer Nano ZSP); format: physicochemical
Method in brief: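 Dynamic light scattering of the particles in PBS(−) gave both the polydispersity index and the ζ-Average mean size.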

liver = experiment: In vivo Fluc activity of FlucmRNA-loaded LNP by in vivo imaging, liver; conditions: Balb/c mice, 6 hours; for Fluc Activity in liver: FlucmRNA-loaded LNP i.v. 0.1 mg mRNA/kg; for Fluc activity in the liver, compared with CL15F6: versus LNP comprising CL15F6 (Table 7)
Method in brief: as §1

[2] = siRNA/mRNA encapsulation rate by Ribogreen reagent (section IV); format: physicochemical; conditions: for % siRNA encapsulation: F7siRNA-loaded LNP, 50:10:38.5:1.5, N/P ratio 6; for % mRNA encapsulation: FlucmRNA-loaded LNP, 50:10:38.5:1.5
Method in brief: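 Encapsulation % was calculated as (total − surface nucleic acid)/total × 100, with both values measured by RiboGreen fluorescence at 485/528 nm. Total RNA was read on LNPs lysed with 1% Triton X-100 at 1.2 μg/mL, and surface RNA on intact LNPs at 8 μg/mL in TE buffer. Concentrations came from a 0-2.5 μg/mL Triton-containing calibration curve.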

F7 = experiment: In vivo F7 knockdown, plasma F7 enzyme activity (BIOPHEN FVII), Balb/c mice; conditions: for knockdown activity, compared with MC3: F7siRNA-loaded LNP, versus LNP comprising MC3; for F7 enzyme activity (Ratio using MC3 as 1) / F7 enzyme activity (%): i.v. 0.025 mg siRNA/kg, plasma at 24 hours; for F7 enzyme activity (Ratio using MC3 as 1): relative plasma F7 activity of MC3 LNP as 1; for F7 enzyme activity (%): untreated mice as 100%
Method in brief: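 Plasma factor VII activity was read 24 h after a single intravenous 0.025 mg siRNA/kg dose of siRNA-loaded lipid nanoparticles in 5-week-old female Balb/c mice. Activity is relative to untreated animals (100%) and normalised to the MC3 nanoparticle benchmark (=1).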

[3] = Storage stability of FlucmRNA-loaded LNP at −80, 5, 25 and 40° C.; format: physicochemical; conditions: for period for which quality remained good, −80° C.: maximum storage period 1 week; for quality at production (storage stability criteria): criteria: PDI 0.2 or less, encapsulation 80% or more
Method in brief: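 Reported period is how long all three criteria hold: encapsulation rate at 80% or more, PDI of 0.2 or less, and mean particle size within +/−20 nm of day-of-preparation value. Particle size, PDI and nucleic acid encapsulation were tracked over time at storage temperatures of −80, 5, 25 and 40° C.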

[4] = F7siRNA-loaded LNP, 50:10:38.5:1.5, N/P ratio 6
[5] = FlucmRNA-loaded LNP, 50:10:38.5:1.5
[6] = FlucmRNA-loaded LNP, lipid:DSPC:cholesterol:DMG-PEG2K 50:10:38.5:1.5

PDI [1, 4] | ζ-Average (nm) [1, 4] [nm] | PDI [1, 5] | ζ-Average (nm) [1, 6] [nm] | % siRNA encapsulation [2] [%] | % mRNA encapsulation [2] [%] | period for which quality remained good, −80° C. [3] [week] | period for which quality remained good, 5° C. ([3]; maximum storage period 5 weeks) | period for which quality remained good, 25° C. ([3]; maximum storage period 5 weeks) | period for which quality remained good, 40° C. (weeks) ([3]; maximum storage period 5 weeks) | Compound | Fluc Activity in spleen (spleen) | Fluc Activity in liver (liver) | knockdown activity, compared with MC3 (F7) | F7 enzyme activity (Ratio using MC3 as 1) (F7) | F7 enzyme activity (%) (F7) | other results
0.076 | 80.87 | 0.078 | 74.02 | 98.0 | 94.0 | 0 | 0 week weeks | 0 week weeks | – | CCCCCCCCCCCCC(CC)C(=O)OCCCCCCC(O)(CCCCCCOC(=O)C(CC)CCCCCCCCCCCC)CCCCN(CCC)CCC (stereo not shown) [CL4F 14-2] | 3.66E+06 Avg Radiance [p/s/cm2/sr] | 4.08E+07 Avg Radiance [p/s/cm2/sr] | – | – | 7.9 | Fluc activity in the spleen, compared with CL4F6 (spleen): higher Fluc activity; period for which quality remained good, 40° C. (days) ([3]; maximum storage period 5 weeks): 0 day days
0.034 | 92.98 | 0.020 | 84.50 | 99.9 | 99.8 | 1 | 5 weeks | 5 weeks | 5 | CCCCCCCCCC(CCCCCC)C(=O)OCCCCCCC(O)(CCCCCCOC(=O)C(CCCCCC)CCCCCCCCC)CCCCN(CCC)CCC (stereo not shown) [CL4F 11-6] | 2.54E+06 Avg Radiance [p/s/cm2/sr] | 1.38E+08 Avg Radiance [p/s/cm2/sr] | – | – | 6 | Fluc activity in the liver, compared with CL4F6 (liver; 0.1 mg mRNA/kg, versus LNP comprising CL4F6 (Tables 5 and 6)): higher Fluc activity
0.172 | 200.4 | 0.044 | 196.80 | 98.3 | 95.5 | 0 | 5 weeks | 5 weeks | 5 | CCCCCCCC(CCC)C(=O)OCCCCCCC(O)(CCCCCCOC(=O)C(CCC)CCCCCCC)CCCCOC(=O)C1CCN(C)CC1 (stereo not shown) [CL15F 9-3] | 7.47E+06 Avg Radiance [p/s/cm2/sr] | 1.16E+06 Avg Radiance [p/s/cm2/sr] | – | 1.50 | – | Fluc activity in the spleen, compared with CL15F6 (spleen): higher Fluc activity
0.025 | 101.2 | 0.007 | 106.50 | 100.3 | 99.75 | 1 | 5 weeks | 5 weeks | 5 | CCCCCCCCCC(CCCCCC)C(=O)OCCCCCCC(O)(CCCCCCOC(=O)C(CCCCCC)CCCCCCCCC)CCCCOC(=O)C1CCN(C)CC1 (stereo not shown) [CL15F 11-6] | 8.19E+06 Avg Radiance [p/s/cm2/sr] | 9.09E+06 Avg Radiance [p/s/cm2/sr] | higher knockdown activity | 0.81 | – | Fluc activity in the spleen, compared with CL15F6 (spleen): higher Fluc activity; Fluc activity in the liver, compared with CL15F6 (liver; 0.1 mg mRNA/kg): higher Fluc activity
0.049 | 102.5 | 0.002 | 102.50 | 100.6 | 99.86 | 1 | 5 weeks | 5 weeks | 5 | CCCCCCCCCC(CCCCCCC)C(=O)OCCCCCCC(O)(CCCCCCOC(=O)C(CCCCCCC)CCCCCCCCC)CCCCOC(=O)C1CCN(C)CC1 (stereo not shown) [CL15F 11-7] | 7.13E+06 Avg Radiance [p/s/cm2/sr] | 1.10E+07 Avg Radiance [p/s/cm2/sr] | higher knockdown activity | 0.85 | – | Fluc activity in the spleen, compared with CL15F6 (spleen): higher Fluc activity; Fluc activity in the liver, compared with CL15F6 (liver; 0.1 mg mRNA/kg): higher Fluc activity

The next lines start with the molecule.

Compound | PDI [1, 4] | ζ-Average (nm) [1, 4] [nm] | PDI [1, 5] | ζ-Average (nm) [1, 6] [nm] | % siRNA encapsulation [2] [%] | % mRNA encapsulation [2] [%] | period for which quality remained good, −80° C. [3] [week] | period for which quality remained good, 5° C. ([3]; maximum storage period 5 weeks) | period for which quality remained good, 25° C. ([3]; maximum storage period 5 weeks) | period for which quality remained good, 40° C. (weeks) ([3]; maximum storage period 5 weeks) | Fluc Activity in spleen (spleen) | Fluc Activity in liver (liver) | knockdown activity, compared with MC3 (F7) | F7 enzyme activity (Ratio using MC3 as 1) (F7) | F7 enzyme activity (%) (F7) | other results
CCCCCCCCCCC(CCCC)C(=O)OCCCCCCC(O)(CCCCCCOC(=O)C(CCCC)CCCCCCCCCC)CCCCOC(=O)C1CCN(C)CC1 (stereo not shown) [CL15F 12-4] | 0.065 | 113.2 | 0.009 | 116.60 | 100.2 | 99.7 | 1 | 5 weeks | 5 weeks | 5 | 5.10E+06 Avg Radiance [p/s/cm2/sr] | 2.87E+06 Avg Radiance [p/s/cm2/sr] | higher knockdown activity | 0.81 | – | –
CCCCCCC(CCCCC)C(=O)OCCCCCCC(O)(CCCCCCOC(=O)C(CCCCC)CCCCCC)CCCCN(CCC)CCC (stereo not shown) [CL4F 8-5] | 0.034 | 103.40 | 0.043 | 94.65 | 99.7 | 99.1 | 1 | 5 weeks | 5 weeks | 5 | 1.45E+07 Avg Radiance [p/s/cm2/sr] | 4.80E+07 Avg Radiance [p/s/cm2/sr] | higher knockdown activity | 0.38 | – | Fluc activity in the spleen, compared with CL4F6 (spleen): higher Fluc activity
CCCCCCCCCCC(CCCCCCCCCC)C(=O)OCCCCCCC(O)(CCCCCCOC(=O)C(CCCCCCCCCC)CCCCCCCCCC)CCCCOC(=O)C1CCN(C)CC1 [CL15F 12-10] | 0.014 | 100.2 | 0.030 | 97.59 | 100.5 | 99.78 | 1 | 5 weeks | 5 weeks | 5 | 5.58E+06 Avg Radiance [p/s/cm2/sr] | 4.33E+07 Avg Radiance [p/s/cm2/sr] | higher knockdown activity | 0.51 | – | Fluc activity in the liver, compared with CL15F6 (liver; 0.1 mg mRNA/kg): higher Fluc activity
CCCCCCCCCCCCCCC(C)C(=O)OCCCCCCC(O)(CCCCCCOC(=O)C(C)CCCCCCCCCCCCCC)CCCCN(CCC)CCC (stereo not shown) [CL4F 16-1] | 0.092 | 64.81 | 0.045 | 69.08 | 94.9 | 65.9 | – | – | – | – | 1.93E+06 Avg Radiance [p/s/cm2/sr] | 8.52E+06 Avg Radiance [p/s/cm2/sr] | – | – | 103.6 | quality at production (storage stability criteria) [3]: Does not meet the criteria for “good” at production
CCCCCCCCCCCCCCCC(=O)OCCCCCCC(O)(CCCCCCOC(=O)CCCCCCCCCCCCCCC)CCCCOC(=O)C1CCN(C)CC1 [CL15F 16-0] | 0.238 | 109.6 | 0.234 | 195.90 | 101.0 | 100.1 | – | – | – | – | 4.59E+05 Avg Radiance [p/s/cm2/sr] | 1.97E+05 Avg Radiance [p/s/cm2/sr] | – | 1.48 | – | quality at production (storage stability criteria) [3]: Does not meet the criteria for “good” at production
CCCCCCCCC(CCCCCCCC)C(=O)OCCCCCCC(O)(CCCCCCOC(=O)C(CCCCCCCC)CCCCCCCC)CCCCN(CCC)CCC [CL4F 10-8] | 0.007 | 91.44 | 0.021 | 81.99 | 99.9 | 99.8 | 1 | 5 weeks | 5 weeks | 5 | 8.04E+05 Avg Radiance [p/s/cm2/sr] | 5.14E+07 Avg Radiance [p/s/cm2/sr] | – | – | 8.1 | –
